How the values were obtained:
[1] = target: T1, CXCR7 receptor (Homo sapiens (Human), UniProt P25106); test: Serum Binding Analysis: displacement of 125I-labeled SDF-1 from CXCR7 in 100% human serum; settings: 125I SDF-1 displacement in 100% human serum, MCF-7 and/or MDA-MB-435S CXCR7 transfected cells, 3 hrs at 4° C.; read-out: Avg Ser IC50
Procedure: (§1) The compounds were combined with cells expressing the CXCR7 receptor (e.g., MCF cells or cells transfected to express CXCR7) in the presence of the 125 I-labeled SDF-1 chemokine as detailed in Determination of IC50 values. Reagents and Cells (see below). The ability of the compounds to displace the labeled chemokine from the CXCR7 receptor sites at multiple concentrations was then determined with the screening process.
In Table 1, Avg Bind IC50 refers to the Buffer Binding Analysis described below, while Avg Ser IC50 refers to the Serum Binding Analysis described below. All compounds were prepared as described in the Examples above, or by related methods substituting readily available starting materials.
(§2) ^125I-labeled SDF-1 was purchased from Perkin-Elmer Life Sciences, Inc. (Boston, Mass.). The MCF-7 (adenocarcinoma; mammary gland) cell line was obtained from the American Type Culture Collection (ATCC, Manassas, Va.) or and was cultured in DMEM (Mediatech, Herndon, Va.) supplemented with 10% fetal bovine serum (FBS) (HyClone Logan, Utah) and bovine insulin (0.01 mg/mL) (Sigma. St. Louis, Mo.) at 37° C. in a humidified incubator at a 5% CO2/air mixture. CXCR7 transfected MDA-MB-435S were produced as described below. MDA-MB-435S human breast cancer line, was purchased from ATCC, and cultured in DMEM/10% FBS medium. The complete coding sequence of the gene encoding CXCR7 (a.k.a. CCXCKR2, hRDC1), was isolated from MCF-7 cells using μMACs mRNA isolation kit (Miltenyi Biotec, Auburn, Calif.). DNA contamination was removed by DNase digestion via RNeasy columns (Qiagen, Inc., Valencia, Calif.) and cDNA was generated using GeneAmp RNA PCR Core Kit (Applied Biosystems, Foster City. Calif.). PCR of cDNA samples was performed using Taq PCR Master Mix kit (Qiagen. Inc.) and hRDC1 primers harboring 5′ and 3′ Not I sites (hRDC1F 5′ […]-3, hRDC1R 5′-[…]-3′) Not I digested PCR product was ligated into Not I digested pcDNA3.1(+)(Invitrogen, Carlsbad, Calif.) and screened for orientation and sequence confirmed. Plasmid DNA was then isolated from overnight bacterial cultures by Maxiprep (Qiagen, Inc.). Plasmid DNA (10 μg) was added to MDA-MB-435s cells and cells were electroporated (0.22 kV, 960 uF) via Gene Pulser (Biorad laboratories, Hercules, Calif.). 48 hr post-electroporation, cells were transferred to selection medium (600 ug/ml G418).
In order to more properly assess the binding efficacy of the compounds, radioligand binding assays were carried out in the presence of 100% human serum to more accurately reflect the in vivo environment. […] Target compounds were tested to determine their ability to bind with CXCR7 sites on MCF-7 and/or MDA-MB-435S CXCR7 transfected cells. Efficiency-maxim/zed radioligand binding using filtration protocols as described in Dairaghi D J, et al., HHV8-encoded vMIP-I selectively engages chemokine receptor CCR5. Agonist and antagonist profiles of viral chemokines., J. Biol. Chem. 1999 Jul. 30; 274(31): 21569-74 and Gosling J, et al., Cutting edge: identification of a novel chemokine receptor that binds dendritic cell- and T cell-active chemokines including ELC, SLC, and TECK, J. Immunol. 2000 Mar. 15; 164(6):2851-6 was used.
In these assays, MCF-7 and/or MDA-MB-435S cells were interrogated with the target compounds and the ability of these compounds to displace 125 I radiolabeled SDF-1 was assessed using the protocol described in Dairaghi and Gosling. The target compounds were added to the plate to the indicated concentration followed by addition of cells and radiolabeled chemokine (125I SDF-1), both in the following medium (human AB serum with 10 mM HEPES added to stabilize at pH 7.4). All assays were then incubated for 3 hrs at 4° C. with gentle agitation.

[2] = target: T1, CXCR7 receptor; test: Buffer Binding Analysis: displacement of 125I-labeled SDF-1 from CXCR7; settings: 125I SDF-1 displacement, buffer binding medium, MCF-7 and/or MDA-MB-435S CXCR7 transfected cells, 3 hr at 4° C.; read-out: Avg Bind IC50
Procedure: as §1
Compounds that were deemed effective modulators were able to displace at least 50% of the SDF-1 from the CXCR7 receptor at concentrations at or below 15 micromolar (μM) but >2500 nM (+); and more preferably at concentrations from >500 nM to ≤2500 nM (++). At present, especially preferred compounds can displace at least 50% of the SDF-1 from the CXCR7 receptor at concentrations at or below 500 nM (+++). Exemplary compounds that met these criteria are reproduced in Table 1 and the Examples above. In Table 1, Avg Bind IC50 refers to the Buffer Binding Analysis described below, while Avg Ser IC50 refers to the Serum Binding Analysis described below. All compounds were prepared as described in the Examples above, or by related methods substituting readily available starting materials.
as §2
Target compounds can be tested to determine their ability to bind with CXCR7 sites on MCF-7 and/or MDA-MB-435S CXCR7 transfected cells. Efficiency-maxim/zed radioligand binding using filtration protocols as described in Dairaghi D J, et al., HHV8-encoded vMIP-I selectively engages chemokine receptor CCR5. Agonist and antagonist profiles of viral chemokines., J. Biol. Chem. 1999 Jul. 30; 274(31): 21569-74 and Gosling J. et al., Cutting edge: identification of a novel chemokine receptor that binds dendritic cell-and T cell-active chemokines including ELC. SLC, and TECK., J. Immunol. 2000 Mar. 15; 164(6):2851-6 was used.
In these assays, MCF-7 and/or MDA-MB-435S cells are interrogated with the target compounds and the ability of these compounds to displace ^125I radiolabeled SDF-1 assessed using the protocol described in Dairaghi and Gosling. […]

T1 sequence (P25106 whole entry): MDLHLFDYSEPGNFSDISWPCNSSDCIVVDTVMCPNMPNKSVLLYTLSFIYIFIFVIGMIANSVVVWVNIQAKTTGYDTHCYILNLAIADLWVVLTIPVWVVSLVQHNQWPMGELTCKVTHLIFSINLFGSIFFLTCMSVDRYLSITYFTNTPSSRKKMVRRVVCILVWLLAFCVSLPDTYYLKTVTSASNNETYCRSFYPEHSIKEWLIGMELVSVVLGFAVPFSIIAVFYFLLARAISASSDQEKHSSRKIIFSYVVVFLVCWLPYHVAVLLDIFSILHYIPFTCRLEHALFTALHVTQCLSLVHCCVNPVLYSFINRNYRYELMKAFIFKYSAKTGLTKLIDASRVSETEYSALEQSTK

Work on `O=C(N[C@H]1CCN(c2nccn3ccnc23)C1)c1ncn(-c2ccccc2)n1` [Compound 1.091] yielded an IC50 [1] of at most 0.5 µM and an IC50 [2] of at most 0.5 µM.

In the case of `O=C(N[C@H]1CCN(c2nccn3ccnc23)C1)c1ccn(-c2ccc(F)cc2)n1` [Compound 1.092], the IC50 [1] is reported as at most 0.5 µM and the IC50 [2] is reported as at most 0.5 µM.

`O=C(N[C@H]1CCN(c2nccn3cccc23)C1)c1ncc(-c2ccccc2)cn1` [Compound 1.093] gave an IC50 [1] of at most 0.5 µM and an IC50 [2] of at most 0.5 µM.

`Cc1cc(Cl)ccc1-n1ccc(C(=O)N[C@H]2CCN(c3nccn4cccc34)C2)n1` [Compound 1.094] was tested, and the IC50 [1] was at most 0.5 µM and the IC50 [2] was at most 0.5 µM.

`O=C(N[C@H]1CCN(c2nccn3cccc23)C1)c1coc(-c2ccc(F)cc2)n1` [Compound 1.095] was tested, and the IC50 [1] was at most 0.5 µM and the IC50 [2] was at most 0.5 µM.

Work on `O=C(N[C@H]1CCN(c2nccn3cccc23)C1)c1csc(-c2ccc(F)cc2)n1` [Compound 1.096] yielded an IC50 [1] of at most 0.5 µM and an IC50 [2] of at most 0.5 µM.

`Cc1ccn2ccnc(N3CC[C@H](NC(=O)c4ccn(-c5cccc(F)c5)n4)C3)c12` [Compound 1.099] showed an IC50 [1] of at most 0.5 µM and an IC50 [2] of at most 0.5 µM.

`Cc1ccn2ccnc(N3CC[C@H](NC(=O)c4ccn(-c5ccc(Cl)c(F)c5)n4)C3)c12` [Compound 1.100] gave an IC50 [1] of 2.5 to 15 µM and an IC50 [2] of at most 0.5 µM.

With `Cc1ccn2ccnc(N3CC[C@H](NC(=O)c4ccn(-c5ccccc5CC#N)n4)C3)c12` [Compound 1.101] the IC50 [1] was 0.5 to 2.5 µM and the IC50 [2] was at most 0.5 µM.

Molecule `O=C(N[C@H]1CCN(c2nccn3ccnc23)C1)c1ccn(-c2ccc(Cl)cc2)n1` [Compound 1.102] has an IC50 [1] of at most 0.5 µM and an IC50 [2] of at most 0.5 µM.

In the case of `Cc1cc(Cl)ccc1-n1ccc(C(=O)N[C@H]2CCN(c3nccn4ccc(C)c34)C2)n1` [Compound 1.103], the IC50 [1] is reported as 0.5 to 2.5 µM and the IC50 [2] is reported as at most 0.5 µM.

Molecule `Cc1ccn2ccnc(N3CC[C@H](NC(=O)c4ccn(-c5ccc(Cl)cc5)n4)C3)c12` [Compound 1.104] has an IC50 [1] of 2.5 to 15 µM and an IC50 [2] of at most 0.5 µM.

For `Cc1ccn2ccnc(N3CC[C@H](NC(=O)c4csc(-c5ccccc5)n4)C3)c12` [Compound 1.105], the IC50 [1] was 0.5 to 2.5 µM and the IC50 [2] was at most 0.5 µM.

Work on `Cc1ccn2ccnc(N3CC[C@H](NC(=O)c4ccn(-c5ccc(F)cc5)n4)C3)c12` [Compound 1.106] yielded an IC50 [1] of 0.5 to 2.5 µM and an IC50 [2] of at most 0.5 µM.

For `Cc1ccn2ccnc(N3CC[C@H](NC(=O)c4coc(-c5ccccc5)n4)C3)c12` [Compound 1.107], the IC50 [1] was 0.5 to 2.5 µM and the IC50 [2] was at most 0.5 µM.

`Cc1ccn2ccnc(N3CC[C@H](NC(=O)c4csc(-c5ccc(F)cc5)n4)C3)c12` [Compound 1.108] showed an IC50 [1] of 0.5 to 2.5 µM and an IC50 [2] of at most 0.5 µM.

`Cc1ccccc1-n1ccc(C(=O)N[C@H]2CCN(c3nccn4ccc(C)c34)C2)n1` [Compound 1.109] gave an IC50 [1] of 0.5 to 2.5 µM and an IC50 [2] of at most 0.5 µM.

In the case of `Cc1ccn2ccnc(N3CC[C@H](NC(=O)c4ncc(-c5ccccc5)cn4)C3)c12` [Compound 1.110], the IC50 [1] is reported as 0.5 to 2.5 µM and the IC50 [2] is reported as at most 0.5 µM.

`Cc1ccn2ccnc(N3CC[C@H](NC(=O)c4noc(-c5ccccc5)n4)C3)c12` [Compound 1.111] showed an IC50 [1] of 0.5 to 2.5 µM and an IC50 [2] of at most 0.5 µM.

Work on `O=C(N[C@H]1CCN(c2nccn3cnnc23)C1)c1ccn(-c2ccc(Cl)cc2)n1` [Compound 1.112] yielded an IC50 [1] of 0.5 to 2.5 µM and an IC50 [2] of at most 0.5 µM.

`O=C(N[C@H]1CCN(c2nccn3cccc23)C1)c1ccn(-c2cccc(F)c2)n1` [Compound 1.113] was tested, and the IC50 [1] was at most 0.5 µM and the IC50 [2] was at most 0.5 µM.

Molecule `O=C(N[C@H]1CCN(c2nccn3cccc23)C1)c1ccn(-c2ccc(Cl)c(F)c2)n1` [Compound 1.114] has an IC50 [1] of at most 0.5 µM and an IC50 [2] of at most 0.5 µM.

With `N#CCc1ccccc1-n1ccc(C(=O)N[C@H]2CCN(c3nccn4cccc34)C2)n1` [Compound 1.115] the IC50 [1] was at most 0.5 µM and the IC50 [2] was at most 0.5 µM.

With `Cc1ccn2ccnc(N3CC[C@H](NC(=O)c4coc(-c5ccc(F)cc5)n4)C3)c12` [Compound 1.116] the IC50 [1] was 0.5 to 2.5 µM and the IC50 [2] was at most 0.5 µM.

`Cc1ccn2ccnc(N3CC[C@H](NC(=O)c4ncn(-c5ccccc5)n4)C3)c12` [Compound 1.117] showed an IC50 [1] of at most 0.5 µM and an IC50 [2] of at most 0.5 µM.

Work on `Cc1ccccc1-n1cnc(C(=O)N[C@H]2CCN(c3nccn4cccc34)C2)n1` [Compound 1.118] yielded an IC50 [1] of at most 0.5 µM and an IC50 [2] of at most 0.5 µM.

Work on `O=C(N[C@H]1CCN(c2nccn3cccc23)C1)c1ncn(-c2ccc(Cl)cc2)n1` [Compound 1.119] yielded an IC50 [1] of 0.5 to 2.5 µM and an IC50 [2] of at most 0.5 µM.

`O=C(N[C@H]1CCN(c2nccn3cccc23)C1)c1noc(-c2ccccc2)n1` [Compound 1.120] was tested, and the IC50 [1] was at most 0.5 µM and the IC50 [2] was at most 0.5 µM.

In the case of `O=C(N[C@H]1CCN(c2nccn3cnnc23)C1)c1coc(-c2ccc(F)cc2)n1` [Compound 1.122], the IC50 [1] is reported as at most 0.5 µM and the IC50 [2] is reported as at most 0.5 µM.

With `Cc1ccccc1-n1ccc(C(=O)N[C@H]2CCN(c3nccn4cccc34)C2)n1` [Compound 1.123] the IC50 [1] was at most 0.5 µM and the IC50 [2] was at most 0.5 µM.

`O=C(N[C@H]1CCN(c2nccn3cccc23)C1)c1csc(-c2ccccc2)n1` [Compound 1.124] was tested, and the IC50 [1] was at most 0.5 µM and the IC50 [2] was at most 0.5 µM.

Work on `O=C(N[C@H]1CCN(c2nccn3cccc23)C1)c1coc(-c2ccccc2)n1` [Compound 1.125] yielded an IC50 [1] of at most 0.5 µM and an IC50 [2] of at most 0.5 µM.

For `O=C(N[C@H]1CCN(c2nccn3cccc23)C1)c1ncn(-c2ccccc2)n1` [Compound 1.126], the IC50 [1] was at most 0.5 µM and the IC50 [2] was at most 0.5 µM.

In the case of `O=C(N[C@H]1CCN(c2nccn3cnnc23)C1)c1ncn(-c2ccccc2)n1` [Compound 1.127], the IC50 [1] is reported as at most 0.5 µM and the IC50 [2] is reported as at most 0.5 µM.

Work on `O=C(N[C@H]1CCN(c2nccn3cccc23)C1)c1ccn(-c2ccc(Cl)cc2)n1` [Compound 1.129] yielded an IC50 [1] of at most 0.5 µM and an IC50 [2] of at most 0.5 µM.
